Measurements as given in patent US20250249006A1, “TREATMENT” (Verona Pharma PLC, priority 2024, published 2025).

Tests used:
[1] = system: patients aged 40-80 years with moderate to severe COPD; assay: Clinical studies, ensifentrine vs placebo: lung function (average FEV1 AUC0-12h); type: in vivo
Method: (§1) Clinical studies were conducted to determine the efficacy of ensifentrine in treating COPD compared with placebo. Ensifentrine was administered by nebuliser at a dose of 3 mg twice daily (BID) for 24 weeks. The studies were multi-centre, randomized, double-blind, parallel-group, placebo-controlled trials.
(§2) The study population included patients aged 40-80 years with moderate to severe COPD (FEV1 30%-70% p.n., FEV1/forced vital capacity (FVC) ratio<0.7, with mMRC≥2). The randomization stratified (a) the use of stable background maintenance LAMA or LABA therapy use (approx. 50%. yes or no) and (b) cigarette smoking (current or former). Inhaled corticosteroid (ICS) maintenance therapy was permitted in up to 20% of patients under certain provisions.
The primary endpoint was change from baseline in average FEV1 area under the curve AUC0-12h post-dose at week 12. Also assessed were COPD symptoms and quality of life (QoL) in patients showing lower responses in terms of lung function, and in particular patients with: (i) improvement in average FEV1 AUC0-12h of less than 100 mL and (ii) improvement in morning trough FEV1 of less than 100 mL, less than 60 mL or less than 40 mL. […]
Average FEV1 AUC0-12h is defined as area under the curve over 12 hours of the FEV1, divided by 12 hours. […] Morning trough FEV1 is defined as the FEV1 assessed at 11.5 to 12 hours following the prior evening dose.

[2] = system: patients aged 40-80 years with moderate to severe COPD; assay: Clinical studies, ensifentrine vs placebo: quality of life responders (SGRQ −4 units) in patients with low FEV1 response; type: in vivo; conditions: for Ensifentrine vs. Placebo Odds Ratio, SGRQ (−4 Unit) Responders / Odds in favor of a response, SGRQ (−4 Unit) Responders: logistic regression; for Ensifentrine vs. Placebo Odds Ratio, SGRQ (−4 Unit) Responders / Odds in favor of a response, SGRQ (−4 Unit) Responders / % SGRQ (−4 Unit) Responders / % responders, SGRQ (−4 Units) Responders / Ensifentrine v placebo Odds Ratio, SGRQ (−4 Units) Responders / Odds in favour of response, SGRQ (−4 Units) Responders: pooled mITT; for % SGRQ (−4 Unit) Responders / % responders, SGRQ (−4 Units) Responders: 3 mg BID nebuliser; for % responders, SGRQ (−4 Units) Responders / Ensifentrine v placebo Odds Ratio, SGRQ (−4 Units) Responders / Odds in favour of response, SGRQ (−4 Units) Responders: improvement in morning trough FEV1 less than 40 mL (table line prints <60 mL); for proportion of patients with a clinically important improvement in QoL: over 24 weeks
Method: as §1, §2
The primary endpoint was change from baseline in average FEV1 area under the curve AUC0-12h post-dose at week 12. Also assessed were COPD symptoms and quality of life (QoL) in patients showing lower responses in terms of lung function, and in particular patients with: (i) improvement in average FEV1 AUC0-12h of less than 100 mL and (ii) improvement in morning trough FEV1 of less than 100 mL, less than 60 mL or less than 40 mL.
COPD symptoms were assessed using Evaluating Respiratory Symptoms (E-RS; EXACT-Respiratory Symptoms, The minimal clinically important difference (MCID) of the E-RS is a total score of −2 units. User Manual (Version 3.0), October 2014) and Transitional Dyspnea Index (TDI; Mahler et al, The MCID of the transition dyspnea index is a total score of one unit. COPD 2005, 2:99-103.) and QoL was assessed using the St. George's Respiratory Questionnaire (SGRQ; Jones, St. George's Respiratory Questionnaire: The MCID of the SGRQ is a total score of −4 units. COPD 2005, 2:75-79.).

[3] = average FEV1 AUC0-12h <100 mL at Week 12, Week 6
[4] = average FEV1 AUC0-12h <100 mL at Week 12, Week 12
[5] = average FEV1 AUC0-12h <100 mL at Week 12, Week 24
[6] = morning trough FEV1 <60 mL at Week 6, Week 6
[7] = morning trough FEV1 <60 mL at Week 12, Week 12
[8] = morning trough FEV1 <60 mL at Week 24, Week 24
[9] = morning trough FEV1 <100 mL at Week 6, Week 6
[10] = morning trough FEV1 <100 mL at Week 12, Week 12
[11] = morning trough FEV1 <100 mL at Week 24, Week 24

SMILES: COc1cc2c(cc1OC)-c1c/c(=N\c3c(C)cc(C)cc3C)n(CCNC(N)=O)c(=O)n1CC2 [Ensifentrine, N-(2-{(2E)-9,10-dimethoxy-4-oxo-2-[(2,4,6-trimethylphenyl)imino]-6,7-dihydro-2H-pyrimido[6,1-a]isoquinolin-3(4H)-yl}ethyl)urea]
- primary endpoint of average FEV1 (AUC)0-12h ([1]; Week 12, 3 mg BID nebuliser vs placebo): met
- improvement in lung function ([1]; all subgroups): statistically significant
- subjects achieving QoL MCID ([2]; FEV1 AUC0-12h <100 mL or morning trough FEV1 <100, <60 or <40 mL, overall conclusion): ~50%
- Ensifentrine vs. Placebo Odds Ratio, SGRQ (−4 Unit) Responders [2, 3]: 1.32
- Odds in favor of a response, SGRQ (−4 Unit) Responders [2, 3]: 1.10
- Ensifentrine vs. Placebo Odds Ratio, SGRQ (−4 Unit) Responders [2, 4]: 1.31
- Odds in favor of a response, SGRQ (−4 Unit) Responders [2, 4]: 0.92
- Ensifentrine vs. Placebo Odds Ratio, SGRQ (−4 Unit) Responders [2, 5]: 1.04
- Odds in favor of a response, SGRQ (−4 Unit) Responders [2, 5]: 0.95
- % SGRQ (−4 Unit) Responders ([2]; average FEV1 AUC0-12h <100 mL at Week 12, responders at Week 6): 45.4%
- % SGRQ (−4 Unit) Responders ([2]; average FEV1 AUC0-12h <100 mL at Week 12, responders at Week 12): 45.4%
- % SGRQ (−4 Unit) Responders ([2]; average FEV1 AUC0-12h <100 mL at Week 12, responders at Week 24): 48.5%
- % responders, SGRQ (−4 Units) Responders ([2]; Week 6): 42.6%
- Ensifentrine v placebo Odds Ratio, SGRQ (−4 Units) Responders ([2]; Week 6): 1.260
- Odds in favour of response, SGRQ (−4 Units) Responders ([2]; Week 6): 0.903
- % responders, SGRQ (−4 Units) Responders ([2]; Week 12): 44.7%
- Ensifentrine v placebo Odds Ratio, SGRQ (−4 Units) Responders ([2]; Week 12): 1.316
- Odds in favour of response, SGRQ (−4 Units) Responders ([2]; Week 12): 0.802
- % responders, SGRQ (−4 Units) Responders ([2]; Week 24): 48.7%
- Ensifentrine v placebo Odds Ratio, SGRQ (−4 Units) Responders ([2]; Week 24): 1.138
- Odds in favour of response, SGRQ (−4 Units) Responders ([2]; Week 24): 0.797
- proportion of patients with a clinically important improvement in QoL ([2]; increase in average FEV1 AUC0-12h less than 100 mL at Week 12): half
- proportion of patients with a clinically important improvement in QoL ([2]; increase in morning trough FEV1 less than 100 mL at Week 12): half
- Ensifentrine vs. Placebo Odds Ratio, SGRQ (−4 Unit) Responders [2, 6]: 1.25
- Odds in favor of a response, SGRQ (−4 Unit) Responders [2, 6]: 0.98
- % SGRQ (−4 Unit) Responders ([2]; morning trough FEV1 <60 mL at Week 6, responders at Week 6): 43.4%
- Ensifentrine vs. Placebo Odds Ratio, SGRQ (−4 Unit) Responders [2, 7]: 1.28
- Odds in favor of a response, SGRQ (−4 Unit) Responders [2, 7]: 0.82
- % SGRQ (−4 Unit) Responders ([2]; morning trough FEV1 <60 mL at Week 12, responders at Week 12): 45.1%
- Ensifentrine vs. Placebo Odds Ratio, SGRQ (−4 Unit) Responders [2, 8]: 1.07
- Odds in favor of a response, SGRQ (−4 Unit) Responders [2, 8]: 0.79
- % SGRQ (−4 Unit) Responders ([2]; morning trough FEV1 <60 mL at Week 24, responders at Week 24): 48.2%
- Ensifentrine vs. Placebo Odds Ratio, SGRQ (−4 Unit) Responders [2, 9]: 1.29
- Odds in favor of a response, SGRQ (−4 Unit) Responders [2, 9]: 1.09
- % SGRQ (−4 Unit) Responders ([2]; morning trough FEV1 <100 mL at Week 6, responders at Week 6): 45.0%
- Ensifentrine vs. Placebo Odds Ratio, SGRQ (−4 Unit) Responders [2, 10]: 1.34
- Odds in favor of a response, SGRQ (−4 Unit) Responders [2, 10]: 0.80
- % SGRQ (−4 Unit) Responders ([2]; morning trough FEV1 <100 mL at Week 12, responders at Week 12): 46.3%
- Ensifentrine vs. Placebo Odds Ratio, SGRQ (−4 Unit) Responders [2, 11]: 1.03
- Odds in favor of a response, SGRQ (−4 Unit) Responders [2, 11]: 0.77
- % SGRQ (−4 Unit) Responders ([2]; morning trough FEV1 <100 mL at Week 24, responders at Week 24): 48.1%
